The text below walks through data of patent US7534590B2, “Method for producing monatin” (AJINOMOTO Co., Inc., priority 2003, dated 2009).

The nature of data set [1]: pH stability of IHOG in amination reaction solution (without microbial cells). Type of data set: physicochemical. Here is the method:
[I] pH Stability of IHOG in Amination Reaction Solution
In order to examine the stability of IHOG in the IHOG amination solution, change of IHOG amounts with time in an IHOG amination solution was measured without adding the microbial cells. A test tube containing 1 mL of the reaction solution composed of 100 mM potassium phosphate buffer (pH 8.3), 300 mM (±)-IHOG, 600 mM DL-Ala and 1 mM pyridoxal-5′-phosphate was shaken at 37° C. for 40 hours, to perform the reaction. […] This is presumed to be attributed to the decomposition of IHOG into indole-3-pyruvic acid and pyruvic acid and the cyclization of IHOG.

Data set [2] can be described thus: pH stability of IHOG in buffer. In kind it is physicochemical. To be noted: 0.54 mM IHOG, 40 mM potassium phosphate buffer, 35° C. Here is the method: [II] pH Stability of IHOG in Buffer
The survival rate of IHOG (0.54 mM) was measured in 40 mM potassium phosphate buffer at different pH. The storage temperature was adjusted to 35° C.

The nature of data set [3]: stability in strongly acidic or strongly alkaline solution to be treated. The settings on record: for stability in strongly acidic solution: strongly acidic region. Type of data set: physicochemical. An excerpt:
The value of pH in the solution to be treated may be 2 to 12, more preferably 7 to 11 and particularly preferably 8 to 9.
When the solution to be treated is strongly acidic or alkaline and contains IHOG, IHOG is decomposed and can not be recovered. […] This cyclization is an irreversible reaction, and therefore, it is difficult to regenerate the cyclized IHOG to reuse for the monatin production.

For data set [4] the following is noted: cited from earlier work; for sweetness potency: relative to sucrose.

Entries after “also recorded” stand apart in the source; their conditions may differ.

For `O=C(O)C(=O)CC(O)(Cc1c[nH]c2ccccc12)C(=O)O` (racemic) [IHOG, 4-(indol-3-ylmethyl)-4-hydroxy-2-oxoglutaric acid], the “Survival rate of IHOG” value in data set [1] (100 mM potassium phosphate buffer pH 8.3, 300 mM (±)-IHOG, 600 mM DL-Ala, 1 mM pyridoxal-5'-phosphate, 37° C., after 16 hours) is given as 81%; in data set [1] (same amination solution pH 8.3, 37° C., after 24 hours), 70%; in data set [1] (same amination solution pH 8.3, 37° C., after 40 hours), 57%; in data set [2] (pH 7, 2 hr) it was 97.4%; in data set [2] (pH 7, 7 hr) it was 90.0%; in data set [2] (pH 7, 24 hr), 68.4%. Also, the “Survival rate of IHOG” value worked out at 45.6% in data set [2] (pH 7, 48 hr); 100.6% in data set [2] (pH 8, 2 hr); 100.1% in data set [2] (pH 8, 7 hr); 96.4% in data set [2] (pH 8, 24 hr); 89.6% in data set [2] (pH 8, 48 hr); 100.6% in data set [2] (pH 9, 2 hr). Moreover, the “Survival rate of IHOG” value was 101.1% in data set [2] (pH 9, 7 hr); 99.0% in data set [2] (pH 9, 24 hr); 94.4% in data set [2] (pH 9, 48 hr); 97.0% in data set [2] (pH 10, 2 hr); 96.8% in data set [2] (pH 10, 7 hr); 94.2% in data set [2] (pH 10, 24 hr). Moreover, the “Survival rate of IHOG” value in data set [2] (pH 10, 48 hr) turned out to be 90.8%; in data set [2] (pH 11, 2 hr), 95.6%; in data set [2] (pH 11, 7 hr), 90.7%; in data set [2] (pH 11, 24 hr), 74.8%; in data set [2] (pH 11, 48 hr) it was 59.3%. Further, the “stability in strongly acidic solution” value in data set [3] was “easily cyclized”. Besides, the “stability in strongly alkaline solution” value in data set [3] (strongly alkaline solution) is “easily decomposed into indole-3-pyruvic acid and pyruvic acid spontaneously”.

`N[C@H](C[C@](O)(Cc1c[nH]c2ccccc12)C(=O)O)C(=O)O` (single isomer, unassigned) [(2R, 4R)-isomer]: the “sweetness rank among four optical isomers of monatin” value in data set [4] (comparison of the monatin isomers, listed as (2R, 4R)-monatin) was “the isomer having the highest sweetness among four optical isomers of monatin; also recorded: highest sweetness potency among monatin isomers”. Also, the sweetness potency result in data set [4] was “hundreds of times to thousands of times stronger than sucrose”.

Take `N[C@H](C[C@@](O)(Cc1c[nH]c2ccccc12)C(=O)O)C(=O)O` (single isomer, unassigned) [(2R, 4S)-isomer]: in data set [4], the sweetness potency entry is given as “hundreds of times to thousands of times stronger than sucrose”.

In the case of `N[C@@H](C[C@](O)(Cc1c[nH]c2ccccc12)C(=O)O)C(=O)O` (single isomer, unassigned) [(2S, 4R)-isomer], the sweetness potency result in data set [4] is “hundreds of times to thousands of times stronger than sucrose”.

Take `NC(CC(O)(Cc1c[nH]c2ccccc12)C(=O)O)C(=O)O` (single isomer, unassigned) [(2S, 4S)-isomer]: the sweetness potency entry in data set [4] is recorded as “hundreds of times to thousands of times stronger than sucrose”.

In the case of `NC(CC(O)(Cc1c[nH]c2ccccc12)C(=O)O)C(=O)O` (centres unmarked) [Monatin], the sweetness potency entry in data set [4] is recorded as “dozens to thousands of times stronger than that of sucrose”. Besides, in data set [3], the “stability in strongly acidic solution” value was “partially decomposed into lactam and lactone”.
